Reference: patent publication US11040035B2, “3-oxo-2,6-diphenyl-2,3-dihydropyridazine-4-carboxamides” (BAYER PHARMA AKTIENGESELLSCHAFT, priority 2016, dated 2021)

Each compound was assayed against T1, AHR (Homo sapiens, UniProt P35869) (assay: In vitro assay 1: antagonism in human cell line (transactivation assay, kynurenic acid prestimulated)). Conditions: Assay 1: AHR-luc Hum Antagonism IC50 [M], 150 μM kynurenic acid, 20 hours, firefly luciferase.
T1 sequence (P35869 11-848): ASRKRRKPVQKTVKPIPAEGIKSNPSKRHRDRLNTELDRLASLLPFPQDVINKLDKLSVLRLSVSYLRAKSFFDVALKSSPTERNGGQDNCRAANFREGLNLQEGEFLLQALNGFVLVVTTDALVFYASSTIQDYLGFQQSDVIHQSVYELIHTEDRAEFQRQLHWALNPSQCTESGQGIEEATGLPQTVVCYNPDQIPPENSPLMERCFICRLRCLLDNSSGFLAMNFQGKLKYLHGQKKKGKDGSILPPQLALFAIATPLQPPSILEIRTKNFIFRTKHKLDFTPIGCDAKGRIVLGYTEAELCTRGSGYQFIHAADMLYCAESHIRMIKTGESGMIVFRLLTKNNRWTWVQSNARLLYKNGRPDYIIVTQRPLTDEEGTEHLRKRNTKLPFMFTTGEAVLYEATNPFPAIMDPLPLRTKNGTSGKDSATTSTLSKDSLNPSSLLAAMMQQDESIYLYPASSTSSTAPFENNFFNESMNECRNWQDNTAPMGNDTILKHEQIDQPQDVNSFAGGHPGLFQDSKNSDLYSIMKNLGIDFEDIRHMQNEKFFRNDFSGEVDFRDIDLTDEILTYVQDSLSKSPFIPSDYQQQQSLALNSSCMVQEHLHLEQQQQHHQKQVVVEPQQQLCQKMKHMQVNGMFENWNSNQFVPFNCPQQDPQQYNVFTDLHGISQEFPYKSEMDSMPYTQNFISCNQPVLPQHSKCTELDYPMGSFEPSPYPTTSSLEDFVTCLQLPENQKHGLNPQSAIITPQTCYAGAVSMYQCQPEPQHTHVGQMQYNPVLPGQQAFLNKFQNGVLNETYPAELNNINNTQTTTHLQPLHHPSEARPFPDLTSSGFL
Compound `CC(NC(=O)c1cc(-c2ccc(C(F)(F)F)cc2)nn(-c2cccc(F)c2)c1=O)C(O)C(F)(F)F` (single isomer, unassigned) [Example 268, Isomer no. 1 of 2-(3-fluorophenyl)-3-oxo-N-(4,4,4-trifluoro-3-hydroxybutan-2-yl)-6-[4-(trifluoromethyl)phenyl]-2,3-dihydropyridazine-4-carboxamide] has an IC50 of over 2e-05 M. `O=C(NC(CO)C1CCCO1)c1cc(-c2ccc(Cl)cc2)nn(-c2cccc(F)c2)c1=O` (single isomer, unassigned) [Example 317, 1,4-anhydro-5-({[6-(4-chlorophenyl)-2-(3-fluorophenyl)-3-oxo-2,3-dihydropyridazin-4-yl]carbonyl}amino)-2,3,5-trideoxyhexitol] gave an IC50 of 1.77e-07 M. `O=C(NC(CO)C1CCCO1)c1cc(-c2ccc(Cl)cc2)nn(-c2cccc(F)c2)c1=O` (single isomer, unassigned) [Example 318, 1,4-anhydro-5-({[6-(4-chlorophenyl)-2-(3-fluorophenyl)-3-oxo-2,3-dihydropyridazin-4-yl]carbonyl}amino)-2,3,5-trideoxyhexitol] gave an IC50 of 5.34e-08 M. `O=C(NC(CO)C1CCCO1)c1cc(-c2ccc(Cl)cc2)nn(-c2cccc(F)c2)c1=O` (single isomer, unassigned) [Example 319, 1,4-anhydro-5-({[6-(4-chlorophenyl)-2-(3-fluorophenyl)-3-oxo-2,3-dihydropyridazin-4-yl]carbonyl}amino)-2,3,5-trideoxyhexitol] was tested, and the IC50 was 5.02e-08 M. `O=C(NC(CO)C1CCCO1)c1cc(-c2ccc(C(F)(F)F)cc2)nn(-c2cccc(F)c2)c1=O` (single isomer, unassigned) [Example 353, 1,4-anhydro-2,3,5-trideoxy-5-[({2-(3-fluorophenyl)-3-oxo-6-[4-(trifluoromethyl)phenyl]-2,3-dihydropyridazin-4-yl}carbonyl)amino]hexitol] gave an IC50 of 2e-08 M. `O=C(NC(CO)C1CCCO1)c1cc(-c2ccc(C(F)(F)F)cc2)nn(-c2cccc(F)c2)c1=O` (single isomer, unassigned) [Example 354, 1,4-anhydro-2,3,5-trideoxy-5-[({2-(3-fluorophenyl)-3-oxo-6-[4-(trifluoromethyl)phenyl]-2,3-dihydropyridazin-4-yl}carbonyl)amino]hexitol] gave an IC50 of 1.41e-08 M. `O=C(NC(CO)C1CCCO1)c1cc(-c2ccc(C(F)(F)F)cc2)nn(-c2cccc(F)c2)c1=O` (single isomer, unassigned) [Example 355, 1,4-anhydro-2,3,5-trideoxy-5-[({2-(3-fluorophenyl)-3-oxo-6-[4-(trifluoromethyl)phenyl]-2,3-dihydropyridazin-4-yl}carbonyl)amino]hexitol] gave an IC50 of 1.2e-07 M. Compound `COCCC(CO)NC(=O)c1cc(-c2ccc(C(F)(F)F)cc2)nn(-c2cccc(F)c2)c1=O` (single isomer, unassigned; (+)) [Example 332, (+)-2-(3-fluorophenyl)-N-(1-hydroxy-4-methoxybutan-2-yl)-3-oxo-6-[4-(trifluoromethyl)phenyl]-2,3-dihydropyridazine-4-carboxamide] has an IC50 of 6.06e-08 M. In the case of `Cc1ccc(-c2cc(C(=O)N[C@H](C)CO)c(=O)n(-c3cccc(F)c3)n2)cc1` [Example 9, 2-(3-Fluorophenyl)-N-[(2R)-1-hydroxypropan-2-yl]-6-(4-methylphenyl)-3-oxo-2,3-dihydropyridazine-4-carboxamide], the IC50 is reported as 1.81e-07 M. In the case of `Cc1ccc(-c2cc(C(=O)NCCO)c(=O)n(-c3cccc(F)c3)n2)cc1` [Example 19, 2-(3-Fluorophenyl)-N-(2-hydroxyethyl)-6-(4-methylphenyl)-3-oxo-2,3-dihydropyridazine-4-carboxamide], the IC50 is reported as 3.91e-07 M. For `CC(CO)NC(=O)c1cc(-c2ccc(Cl)cc2)nn(-c2cccc(F)c2)c1=O` (centres unmarked) [Example 22, 6-(4-Chlorophenyl)-2-(3-fluorophenyl)-N-(1-hydroxypropan-2-yl)-3-oxo-2,3-dihydropyridazine-4-carboxamide], the IC50 was 8.39e-08 M. In the case of `CC(C)[C@@H](CO)NC(=O)c1cc(-c2ccc(Cl)cc2)nn(-c2cccc(Cl)c2)c1=O` [Example 59, 2-(3-Chlorophenyl)-6-(4-chlorophenyl)-N-[(2S)-1-hydroxy-3-methylbutan-2-yl]-3-oxo-2,3-dihydropyridazine-4-carboxamide], the IC50 is reported as 4.96e-08 M. For `CC[C@@H](CO)NC(=O)c1cc(-c2ccc(Cl)cc2)nn(-c2cccc(Cl)c2)c1=O` [Example 60, 2-(3-Chlorophenyl)-6-(4-chlorophenyl)-N-[(2S)-1-hydroxybutan-2-yl]-3-oxo-2,3-dihydropyridazine-4-carboxamide], the IC50 was 6.6e-08 M. With `CC(C)C[C@@H](CO)NC(=O)c1cc(-c2ccc(Cl)cc2)nn(-c2cccc(Cl)c2)c1=O` [Example 61, 2-(3-Chlorophenyl)-6-(4-chlorophenyl)-N-[(2S)-1-hydroxy-4-methylpentan-2-yl]-3-oxo-2,3-dihydropyridazine-4-carboxamide] the IC50 was 5.14e-07 M. `O=C(NCC(O)C(F)(F)F)c1cc(-c2ccc(Cl)cc2)nn(-c2cccc(Cl)c2)c1=O` (centres unmarked) [Example 62, 2-(3-Chlorophenyl)-6-(4-chlorophenyl)-3-oxo-N-(3,3,3-trifluoro-2-hydroxypropyl)-2,3-dihydropyridazine-4-carboxamide] gave an IC50 of 1.5e-07 M. `CC(CO)NC(=O)c1cc(-c2ccc(Cl)cc2)nn(-c2cccc(Cl)c2)c1=O` (centres unmarked) [Example 65, 2-(3-Chlorophenyl)-6-(4-chlorophenyl)-N-(1-hydroxypropan-2-yl)-3-oxo-2,3-dihydropyridazine-4-carboxamide] showed an IC50 of 3e-07 M. Work on `CC(C)C(O)CNC(=O)c1cc(-c2ccc(Cl)cc2)nn(-c2cccc(Cl)c2)c1=O` (centres unmarked) [Example 67, 2-(3-Chlorophenyl)-6-(4-chlorophenyl)-N-(2-hydroxy-3-methylbutyl)-3-oxo-2,3-dihydropyridazine-4-carboxamide] yielded an IC50 of 3.89e-07 M. Compound `Cc1ccc(-c2cc(C(=O)N[C@H](CO)C(C)C)c(=O)n(-c3ccccc3)n2)cc1` [Example 71, N-[(2S)-1-hydroxy-3-methylbutan-2-yl]-6-(4-methylphenyl)-3-oxo-2-phenyl-2,3-dihydropyridazine-4-carboxamide] has an IC50 of 4.05e-08 M. In the case of `Cc1ccc(-c2cc(C(=O)N[C@@H](CO)C(C)C)c(=O)n(-c3ccccc3)n2)cc1` [Example 72, N-[(2R)-1-hydroxy-3-methylbutan-2-yl]-6-(4-methylphenyl)-3-oxo-2-phenyl-2,3-dihydropyridazine-4-carboxamide], the IC50 is reported as 2.11e-06 M. `Cc1ccc(-c2cc(C(=O)NC(C)CO)c(=O)n(-c3ccccc3)n2)cc1` (centres unmarked) [Example 73, N-(1-hydroxypropan-2-yl)-6-(4-methylphenyl)-3-oxo-2-phenyl-2,3-dihydropyridazine-4-carboxamide] was tested, and the IC50 was 3.07e-07 M. With `Cc1ccc(-c2cc(C(=O)NCCO)c(=O)n(-c3ccccc3)n2)cc1` [Example 74, N-(2-hydroxyethyl)-6-(4-methylphenyl)-3-oxo-2-phenyl-2,3-dihydropyridazine-4-carboxamide] the IC50 was 2.1e-06 M. `CC(CO)NC(=O)c1cc(-c2ccc(Cl)cc2)nn(-c2ccccc2)c1=O` (centres unmarked) [Example 79, 6-(4-chlorophenyl)-N-(1-hydroxypropan-2-yl)-3-oxo-2-phenyl-2,3-dihydropyridazine-4-carboxamide] gave an IC50 of 2.82e-07 M. `C[C@H](CO)NC(=O)c1cc(-c2ccc(Cl)cc2)nn(-c2ccccc2)c1=O` [Example 81, 6-(4-chlorophenyl)-N-[(2R)-1-hydroxypropan-2-yl]-3-oxo-2-phenyl-2,3-dihydropyridazine-4-carboxamide] gave an IC50 of 1.12e-06 M.
